Like-named read-outs stand apart in the source and are kept apart here. Peptide text beside a SMILES is read from it. * marks the point of attachment. NOTA = O=C(O)CN1CCN(CC(=O)O)CCN(CC(=O)*)CC1; AEEEA = NCCOCCOCCOCC(=O)O
Key:
PD-L2 = target: T1, PD-L2 (Homo sapiens, UniProt Q9BQ51); test: [^68Ga]Ga-HN11-1 PET/CT imaging in cancer patients; assay type: in vivo
T1 construct: from tissue; host or cells: tumour lesions (NSCLC, recurrent or metastatic HNSCC) in living patients
T1 sequence (Q9BQ51 20-273): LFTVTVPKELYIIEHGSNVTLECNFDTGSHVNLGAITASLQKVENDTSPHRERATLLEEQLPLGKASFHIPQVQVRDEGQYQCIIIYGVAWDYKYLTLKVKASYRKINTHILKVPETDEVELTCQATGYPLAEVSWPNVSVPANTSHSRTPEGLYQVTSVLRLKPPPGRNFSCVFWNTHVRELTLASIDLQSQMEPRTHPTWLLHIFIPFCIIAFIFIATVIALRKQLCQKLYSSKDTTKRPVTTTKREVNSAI
Experimental: (§1) The program content was explained to all healthy volunteers and cancer patients, and written informed consent was obtained. Whole-body dynamic imaging was conducted for 60 min using a PET/CT 690 Elite scanner (GE Discovery) immediately after intravenous injection of [^68Ga]Ga-HN11-1 (3.1 to 4.9 MBq/kg). A static body scan was performed 15 to 45 min after injection. All cancer patients underwent [^18F]F-FDG and [^68Ga]Ga-HN11-1 PET/CT imaging within 5 d. Two nuclear medicine physicians reconstructed and reviewed the images on GE aw 4.6 workstations and reached a consensus. They delineated the ROIs and measured the values of maximum standard uptake and average standard uptake (SUVmax and SUVmean). The biological distribution of [^68Ga]Ga-HN11-1 in healthy volunteers was determined by SUVmax and SUVmean. The OLINDA/EXM software (version 1.0, Hermes Medical Solutions AB) was used to estimate the human radiation dose based on the SUVmean of each organ.

[1] = Biodistribution (γ-counter); assay type: in vivo, BALB/C nude mice; details: male, BALB/C nude, mouse, iv, total radioactivity, mean ± SD, n = 3; for tissue uptake at 10 min / tissue to tissue ratio at 10 min: 10 min p.i.; for tissue uptake at 0.5 h / tissue to tissue ratio at 0.5 h: 30 min p.i.; for tissue uptake at 1.5 h / tissue to tissue ratio at 1.5 h: 90 min p.i.
Experimental: (§2) Micro-PET imaging was conducted using an Inveon PET scanner (Siemens, Germany). Dynamic PET examine were acquired over the first 60 min following the simultaneous injection of 7.4 to 9.25 MBq (200 to 250 μCi) of [^68Ga]Ga-HN11-1 and [^68Ga]Ga-HN11-2. After reconstructing the images and delineating the regions of interest (ROIs), time-radioactivity curves were plotted to obtain the Tumor/Muscle (T/M) ratios. %ID/g represents the percentage of the injected dose of the radiotracer that accumulates in a specific tissue per gram of tissue weight. For the biodistribution study, the xenograft models received an intravenous injection of 3.7 to 5.5 MBq (100 to 150 μCi) of [^68Ga]Ga-HN11-1. After the designated period (10, 30, 60, and 90 min), the mice were euthanized, and important tissues and organs were dissected and collected. The samples were counted using the γ-counter for determining the %ID/g, presented as mean ± standard deviation (SD).
A549 cell lines were provided by the China Center for Type Culture Collection (CCTCC) and cultured in RPMI-1640 medium supplemented with 10 % fetal bovine serum and 100 U/mL penicillin-streptomycin. The lentivirus system was implemented to introduce PD-L2 (PDCD1LG2) over-expressed cDNA into the A549 cells. The viral vectors were produced in 293T cells and co-transfected with the psAX2, pMD2G and PD-L2 plasmids. A549 cells transduced with the vectors were selectively grown in 1.6 μg/mL puromycin. Transfection efficiency was identified by WB and real-time quantitative PCR. All the cells were cultured in an incubator at 37° C with 5 % CO2 atmosphere. A549 and A549-PD-L2 cells (5 × 10^6, 200 μL)were subcutaneously implanted into the right shoulder of BALB/C nude mice (male, 4-6 weeks), respectively. When the tumors reached to 5 - 8 mm in diameter, the mice were subjected to in vivo and ex vivo studies. All the mice were purchased from the Laboratory Animal Center of Central South University.

[2] = tested on: A549 tumor xenograft models; test: Dynamic micro-PET imaging in A549 xenografts; assay type: in vivo, BALB/C nude mice; details: each time point 10 to 60 min, n = 3
Experimental: as §2
A549 cell lines were provided by the China Center for Type Culture Collection (CCTCC) and cultured in RPMI-1640 medium supplemented with 10 % fetal bovine serum and 100 U/mL penicillin-streptomycin. The lentivirus system was implemented to introduce PD-L2 (PDCD1LG2) over-expressed cDNA into the A549 cells. […] Transfection efficiency was identified by WB and real-time quantitative PCR. […]

[3] = Safety after intravenous injection in volunteers and patients; assay type: in vivo, human; details: 3 healthy volunteers and 6 patients, intravenous injection 3.1 to 4.9 MBq/kg
Experimental: as §1

[4] = large intestine, read-out: Large intestine uptake
[5] = muscle, read-out: Muscle uptake
[6] = small intestine, read-out: Small intestine uptake
[7] = tumor and blood, read-out: Tumor/Blood ratio
[8] = tumor and brain, read-out: Tumor/Brain ratio
[9] = tumor and heart, read-out: Tumor/Heart ratio
[10] = tumor and liver, read-out: Tumor/Liver ratio
[11] = tumor and lung, read-out: Tumor/Lung ratio
[12] = tumor and muscle, read-out: Tumor/Muscle ratio

CC[C@H](C)[C@H](NC(=O)[C@H](CCCNC(=N)N)NC(=O)CNC(=O)[C@H](CCC(=O)O)NC(=O)[C@H](CC(N)=O)NC(=O)[C@H](Cc1ccc(O)cc1)NC(=O)[C@H](CCCNC(=N)N)NC(=O)[C@H](Cc1ccc(O)cc1)NC(=O)[C@H](Cc1c[nH]cn1)NC(=O)COCCOCCOCCNC(=O)CN1CCN(CC(=O)O)CCN(CC(=O)O)CC1)C(=O)N[C@@H](CCCNC(=N)N)C(=O)N[C@@H](CC(N)=O)C(=O)O [[^68Ga]Ga-HN11-1, metal not drawn] ({NOTA-AEEEA}-HYRYNEGRIRN-OH)
median SUVmax (PD-L2; all patients, n = 6): 3.25 | HN11-1 SUVmax (PD-L2; patient 1, NSCLC, lung, PD-L2 expression 80 %): 4.1 | HN11-1 SUVmax (PD-L2; patient 2, NSCLC, lung, PD-L2 expression 15 %): 2.1 | HN11-1 SUVmax (PD-L2; patient 3, rHNSCC, buccal): 4.0 | HN11-1 SUVmax (PD-L2; patient 4, rHNSCC, buccal): 3.0 | tissue uptake at 10 min ([1]; bone, read-out: Bone uptake): 0.68 ± 0.06 %ID/g | tissue uptake at 0.5 h ([1]; bone, read-out: Bone uptake): 0.6 ± 0.03 %ID/g | tissue uptake at 1 h ([1]; bone, 60 min HN11-1 Block, read-out: Bone uptake): 0.43 ± 0.07 %ID/g | tissue uptake at 1 h ([1]; bone, 60 min p.i., read-out: Bone uptake): 0.41 ± 0.08 %ID/g | tissue uptake at 1.5 h ([1]; bone, read-out: Bone uptake): 0.31 ± 0.06 %ID/g | tissue uptake at 10 min ([1]; brain, read-out: Brain uptake): 0.17 ± 0.03 %ID/g | tissue uptake at 0.5 h ([1]; brain, read-out: Brain uptake): 0.12 ± 0.03 %ID/g | tissue uptake at 1 h ([1]; brain, 60 min HN11-1 Block, read-out: Brain uptake): 0.07 ± 0.01 %ID/g | tissue uptake at 1 h ([1]; brain, 60 min p.i., read-out: Brain uptake): 0.07 ± 0.01 %ID/g | tissue uptake at 1.5 h ([1]; brain, read-out: Brain uptake): 0.03 ± 0.01 %ID/g | tissue uptake at 10 min ([1]; kidney, read-out: Kidney uptake): 55.6 ± 6.6 %ID/g | tissue uptake at 10 min [1, 4]: 1.02 ± 0.06 %ID/g | tissue uptake at 0.5 h [1, 4]: 0.48 ± 0.09 %ID/g | tissue uptake at 1 h ([1]; large intestine, 60 min HN11-1 Block, read-out: Large intestine uptake): 0.23 ± 0.05 %ID/g | tissue uptake at 1 h ([1]; large intestine, 60 min p.i., read-out: Large intestine uptake): 0.21 ± 0.05 %ID/g | tissue uptake at 1.5 h [1, 4]: 0.1 ± 0.01 %ID/g | tissue uptake at 10 min [1, 5]: 0.89 ± 0.02 %ID/g | tissue uptake at 0.5 h [1, 5]: 0.69 ± 0.07 %ID/g | tissue uptake at 1 h ([1]; muscle, 60 min HN11-1 Block, read-out: Muscle uptake): 0.56 ± 0.04 %ID/g | tissue uptake at 1 h ([1]; muscle, 60 min p.i., read-out: Muscle uptake): 0.56 ± 0.09 %ID/g | tissue uptake at 1.5 h [1, 5]: 0.15 ± 0.03 %ID/g | tissue uptake at 10 min [1, 6]: 0.86 ± 0.09 %ID/g | tissue uptake at 0.5 h [1, 6]: 0.62 ± 0.04 %ID/g | tissue uptake at 1 h ([1]; small intestine, 60 min HN11-1 Block, read-out: Small intestine uptake): 0.34 ± 0.04 %ID/g | tissue uptake at 1 h ([1]; small intestine, 60 min p.i., read-out: Small intestine uptake): 0.21 ± 0.02 %ID/g | tissue uptake at 1.5 h [1, 6]: 0.16 ± 0.05 %ID/g | tissue to tissue ratio at 10 min [1, 7]: 0.58 ± 0.15 | tissue to tissue ratio at 0.5 h [1, 7]: 2.66 ± 0.47 | tissue to tissue ratio at 1 h ([1]; tumor and blood, 60 min p.i., read-out: Tumor/Blood ratio): 6.41 ± 0.98 | tissue to tissue ratio at 1.5 h [1, 7]: 2.58 ± 0.52 | tissue to tissue ratio at 1 h ([1]; tumor and blood, with HN11-1 (block; amount not stated), 60 min HN11-1 Block, read-out: Tumor/Blood ratio): 1.94 ± 0.67 | tissue to tissue ratio at 10 min [1, 8]: 10.3 ± 3.45 | tissue to tissue ratio at 0.5 h [1, 8]: 30.9 ± 8.94 | tissue to tissue ratio at 1 h ([1]; tumor and brain, 60 min p.i., read-out: Tumor/Brain ratio): 31.9 ± 7.97 | tissue to tissue ratio at 1.5 h [1, 8]: 12.3 ± 2.45 | tissue to tissue ratio at 1 h ([1]; tumor and brain, with HN11-1 (block; amount not stated), 60 min HN11-1 Block, read-out: Tumor/Brain ratio): 9.41 ± 2.19 | tissue to tissue ratio at 10 min [1, 9]: 1.15 ± 0.19 | tissue to tissue ratio at 0.5 h [1, 9]: 4.13 ± 0.21 | tissue to tissue ratio at 1 h ([1]; tumor and heart, 60 min p.i., read-out: Tumor/Heart ratio): 12.7 ± 2.22 | tissue to tissue ratio at 1.5 h [1, 9]: 3 ± 0.15 | tissue to tissue ratio at 1 h ([1]; tumor and heart, with HN11-1 (block; amount not stated), 60 min HN11-1 Block, read-out: Tumor/Heart ratio): 3.68 ± 1.43 | tissue to tissue ratio at 10 min [1, 10]: 0.56 ± 0.07 | tissue to tissue ratio at 0.5 h [1, 10]: 2.61 ± 0.82 | tissue to tissue ratio at 1 h ([1]; tumor and liver, 60 min p.i., read-out: Tumor/Liver ratio): 2.53 ± 0.75 | tissue to tissue ratio at 1.5 h [1, 10]: 2.13 ± 1.27 | tissue to tissue ratio at 1 h ([1]; tumor and liver, with HN11-1 (block; amount not stated), 60 min HN11-1 Block, read-out: Tumor/Liver ratio): 0.57 ± 0.27 | tissue to tissue ratio at 10 min [1, 11]: 1.04 ± 0.22 | tissue to tissue ratio at 0.5 h [1, 11]: 3.69 ± 0.24 | tissue to tissue ratio at 1 h ([1]; tumor and lung, 60 min p.i., read-out: Tumor/Lung ratio): 3.01 ± 0.53 | tissue to tissue ratio at 1.5 h [1, 11]: 1.05 ± 0.24 | tissue to tissue ratio at 1 h ([1]; tumor and lung, with HN11-1 (block; amount not stated), 60 min HN11-1 Block, read-out: Tumor/Lung ratio): 0.69 ± 0.23 | tissue to tissue ratio at 10 min [1, 12]: 1.82 ± 0.32 | tissue to tissue ratio at 0.5 h [1, 12]: 5.11 ± 0.25 | tissue to tissue ratio at 1 h ([1]; tumor and muscle, 60 min p.i., read-out: Tumor/Muscle ratio): 4.11 ± 1.25 | tissue to tissue ratio at 1.5 h [1, 12]: 2.66 ± 0.43 | tissue to tissue ratio at 1 h ([1]; tumor and muscle, with HN11-1 (block; amount not stated), 60 min HN11-1 Block, read-out: Tumor/Muscle ratio): 1.11 ± 0.27 | tissue uptake at 10 min ([1]; tumor, read-out: Tumor uptake): 1.61 ± 0.28 %ID/g | tissue uptake at 0.5 h ([1]; tumor, read-out: Tumor uptake): 3.52 ± 0.35 %ID/g | tissue uptake at 1 h ([1]; tumor, 60 min HN11-1 Block, read-out: Tumor uptake): 0.63 ± 0.18 %ID/g | tissue uptake at 1 h ([1]; tumor, 60 min p.i., read-out: Tumor uptake): 2.2 ± 0.3 %ID/g | tissue uptake at 1.5 h ([1]; tumor, read-out: Tumor uptake): 0.39 %ID/g | tumor uptake in A549 tumor xenograft models [2]: almost negligible | tolerability / adverse pharmacological reactions [3]: well tolerated and without adverse pharmacological reactions observed

Reference: article PMC11528066, “Noninvasive Monitoring of Programmed Death-Ligand 2 Expression with Positron Emission Tomography using ^68Ga-labeled Peptide Antagonist in Preclinical and Exploratory Human Studies” (Research, 2024)
